Biological target: T1, Full-length glucokinase (beta cell isoform) (Homo sapiens, UniProt P35557)
T1 construct: Full-length glucokinase (beta cell isoform) was His-tagged at N-terminus; His tag (N); made in house
T1 sequence (P35557 1-465): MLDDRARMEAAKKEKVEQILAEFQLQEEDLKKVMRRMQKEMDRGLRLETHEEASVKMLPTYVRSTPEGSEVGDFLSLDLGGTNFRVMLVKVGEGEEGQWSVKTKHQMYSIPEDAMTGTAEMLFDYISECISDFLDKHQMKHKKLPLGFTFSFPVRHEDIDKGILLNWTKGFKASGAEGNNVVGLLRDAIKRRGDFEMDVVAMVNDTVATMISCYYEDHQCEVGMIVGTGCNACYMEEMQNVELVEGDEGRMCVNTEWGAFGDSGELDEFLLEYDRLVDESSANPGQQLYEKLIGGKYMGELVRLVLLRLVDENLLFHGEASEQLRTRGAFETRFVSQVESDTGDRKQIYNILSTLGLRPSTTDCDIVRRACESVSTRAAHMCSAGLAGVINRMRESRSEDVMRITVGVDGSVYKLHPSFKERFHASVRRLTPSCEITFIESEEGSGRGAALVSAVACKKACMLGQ
Experiment: Glucokinase biochemical assay (PK/LDH-coupled, NADH depletion at 340 nm): % activation, EC50, % max activation
Settings: 5 mM glucose; for activation at 10 µM: 10 uM compound, % Activation=(Va/Vo−1)×100, read-out: % Activation at 10 uM; for EC50: GK activation, read-out: EC50; for Emax: fitted maximum activation, read-out: % Max Activation
In short: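 Activation expressed as (Va/Vo−1)×100, where initial rates with and without compound come from NADH depletion at 340 nm over 200–900 s. Enzyme is His-tagged human beta-cell GK, full length, run at room temperature in HEPES buffer with 1 mM ATP and 5 mM glucose. DMSO 1%.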

SMILES | activation at 10 µM [%] | EC50 [nM] | Emax [%]
CCNC(=O)c1ccc(Oc2cc(C(=O)Nc3cnn(C)n3)cc3c2CC(C)(C)O3)cn1 [Example 174, 5-[2,2-Dimethyl-6-(2-methyl-2H-[1,2,3]triazol-4-ylcarbamoyl)-2,3-dihydro-benzofuran-4-yloxy]-pyridine-2-carboxylic acid ethylamide] | 238 | 840 | 258
CCNC(=O)c1ncc(Oc2cc(C(=O)Nc3ccn(C)n3)cc3c2CC(C)(C)O3)cc1NCC [Example 175, 5-[2,2-Dimethyl-6-(1-methyl-1H-pyrazol-3-ylcarbamoyl)-2,3-dihydro-benzofuran-4-yloxy]-3-ethylamino-pyridine-2-carboxylic acid ethylamide] | 233 | 770 | 251
CNC(=O)c1ncc(Oc2cc(C(=O)Nc3ccn(C)n3)cc3c2CC(C)(C)O3)cc1F [Example 176, 5-[2,2-Dimethyl-6-(1-methyl-1H-pyrazol-3-ylcarbamoyl)-2,3-dihydro-benzofuran-4-yloxy]-3-fluoro-pyridine-2-carboxylic acid methylamide] | 194 | 450 | 203
CCNC(=O)c1ncc(Oc2cc(C(=O)Nc3ccn(C)n3)cc3c2CC(C)(C)O3)cc1F [Example 177, 5-[2,2-Dimethyl-6-(1-methyl-1H-pyrazol-3-ylcarbamoyl)-2,3-dihydro-benzofuran-4-yloxy]-3-fluoro-pyridine-2-carboxylic acid ethylamide] | 204 | 350 | 189
CN(C)C(=O)c1ncc(Oc2cc(C(=O)Nc3ccn(C)n3)cc3c2CC(C)(C)O3)cc1F [Example 178, 5-[2,2-Dimethyl-6-(1-methyl-1H-pyrazol-3-ylcarbamoyl)-2,3-dihydro-benzofuran-4-yloxy]-3-fluoro-pyridine-2-carboxylic acid dimethylamide] | 198 | 90 | 147
Cn1ccc(NC(=O)c2cc(Oc3ccc(C(=O)O)nc3)c3c(c2)OC(C)(C)C3)n1 [Example 180, 5-[2,2-Dimethyl-6-(1-methyl-1H-pyrazol-3-ylcarbamoyl)-2,3-dihydro-benzofuran-4-yloxy]-pyridine-2-carboxylic acid] | 66.5 | > 10000 | –
Cn1ccc(NC(=O)c2cc(Oc3ccc(C#N)nc3)c3c(c2)OC(C)(C)C3)n1 [Example 181, 4-(6-Cyano-pyridin-3-yloxy)-2,2-dimethyl-2,3-dihydro-benzofuran-6-carboxylic acid (1-methyl-1H-pyrazol-3-yl)-amide] | 171 | 1100 | 182
Cn1ccc(NC(=O)c2cc(Oc3ccc(-c4ncon4)nc3)c3c(c2)OC(C)(C)C3)n1 [Example 182, 2,2-Dimethyl-4-(6-[1,2,4]oxadiazol-3-yl-pyridin-3-yloxy)-2,3-dihydro-benzofuran-6-carboxylic acid (1-methyl-1H-pyrazol-3-yl)-amide] | 244 | 290 | 237
Cn1ccc(NC(=O)c2cc(Oc3ccc(C#N)c(F)c3)c3c(c2)OC(C)(C)C3)n1 [Example 183, 4-(4-Cyano-3-fluoro-phenoxy)-2,2-dimethyl-2,3-dihydro-benzofuran-6-carboxylic acid (1-methyl-1H-pyrazol-3-yl)-amide] | 237 | 1900 | 236
Cn1ncc(NC(=O)c2cc(Oc3ccc(C#N)c(F)c3)c3c(c2)OC(C)(C)C3)n1 [Example 184, 4-(4-Cyano-3-fluoro-phenoxy)-2,2-dimethyl-2,3-dihydro-benzofuran-6-carboxylic acid (2-methyl-2H-[1,2,3]triazol-4-yl)-amide] | 250 | 3200 | 251
Cn1ccc(NC(=O)c2cc(Oc3ccc(-c4ncon4)c(F)c3)c3c(c2)OC(C)(C)C3)n1 [Example 185, 4-(3-Fluoro-4-[1,2,4]oxadiazol-3-yl-phenoxy)-2,2-dimethyl-2,3-dihydro-benzofuran-6-carboxylic acid (1-methyl-1H-pyrazol-3-yl)-amide] | 248 | 104 | 227
Cn1ncc(NC(=O)c2cc(Oc3ccc(-c4ncon4)c(F)c3)c3c(c2)OC(C)(C)C3)n1 [Example 186, 4-(3-Fluoro-4-[1,2,4]oxadiazol-3-yl-phenoxy)-2,2-dimethyl-2,3-dihydro-benzofuran-6-carboxylic acid (2-methyl-2H-[1,2,3]triazol-4-yl)-amide] | 135 | 160 | 234
Cn1ccc(NC(=O)c2cc(Oc3ccc(-c4ncon4)cc3)c3c(c2)OC(C)(C)C3)n1 [Example 187, 2,2-Dimethyl-4-(4-[1,2,4]oxadiazol-3-yl-phenoxy)-2,3-dihydro-benzofuran-6-carboxylic acid (1-methyl-1H-pyrazol-3-yl)-amide] | 178 | > 10000 | –
Cn1ncc(NC(=O)c2cc(Oc3ccc(-c4ncon4)cc3)c3c(c2)OC(C)(C)C3)n1 [Example 188, 2,2-Dimethyl-4-(4-[1,2,4]oxadiazol-3-yl-phenoxy)-2,3-dihydro-benzofuran-6-carboxylic acid (2-methyl-2H-[1,2,3]triazol-4-yl)-amide] | 198 | 620 | 230
Cn1ccc(NC(=O)c2cc(Oc3ccc(-c4ncon4)c(Cl)c3)c3c(c2)OC(C)(C)C3)n1 [Example 189, 4-(3-Chloro-4-[1,2,4]oxadiazol-3-yl-phenoxy)-2,2-dimethyl-2,3-dihydro-benzofuran-6-carboxylic acid (1-methyl-1H-pyrazol-3-yl)-amide] | 219 | 870 | 245
Cn1ccc(NC(=O)c2cc(Oc3ccc(S(C)(=O)=O)cc3)c3c(c2F)OC(C)(C)C3)n1 [Example 190, 7-Fluoro-4-(4-methanesulfonyl-phenoxy)-2,2-dimethyl-2,3-dihydro-benzofuran-6-carboxylic acid (1-methyl-1H-pyrazol-3-yl)-amide] | 83.9 | 7300 | 138
Cn1ccc(NC(=O)c2cc(Oc3ccc(C(=O)N4CCC4)cc3)c3c(c2F)OC(C)(C)C3)n1 [Example 191, 4-[4-(Azetidine-1-carbonyl)-phenoxy]-7-fluoro-2,2-dimethyl-2,3-dihydro-benzofuran-6-carboxylic acid (1-methyl-1H-pyrazol-3-yl)-amide] | 91.2 | 1700 | 119
Cn1ccc(NC(=O)c2cc3c(c(Oc4ccc(S(C)(=O)=O)cc4)c2F)CC(C)(C)O3)n1 [Example 192, 5-Fluoro-4-(4-methanesulfonyl-phenoxy)-2,2-dimethyl-2,3-dihydro-benzofuran-6-carboxylic acid (1-methyl-1H-pyrazol-3-yl)-amide] | 249 | 2100 | 285
Cn1ccc(NC(=O)c2cc(OC3CN(S(C)(=O)=O)C3)c3c(c2)OC(C)(C)C3)n1 [Example 193, 4-(1-Methanesulfonyl-azetidin-3-yloxy)-2,2-dimethyl-2,3-dihydro-benzofuran-6-carboxylic acid (1-methyl-1H-pyrazol-3-yl)-amide] | 116 | 8800 | 237
